In patent publication US9181234B2, “Antibacterial compounds” (priority 2010, dated 2015) one finds solubility and MIC data, which are given here for 15 compounds.

The nature of one series: physchem. The conditions noted are these: kinetic from dmso stock. The procedure, abridged: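 DMSO doubling dilutions were diluted twenty-fold into 100 mM citrate (pH 4), PBS (pH 7.4) or carbonate-bicarbonate (pH 9). After 24 h equilibration at room temperature, absorbance was read at 620 nm. The reported value is the highest concentration without measurable precipitate.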

For series [1], the system named is Enterococcus faecalis (Isolate ID ATCC 29212). In words: Antibacterial activity, MIC, E. faecalis. The conditions noted are these: Enterococcus faecalis, ATCC29212; Gram positive strain; broth microdilution or agar dilution. The series is classed as cell-based. An outline of the steps: (§1)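 Broth microdilution or agar dilution per CLSI M7-A7; MIC read as susceptibility endpoint in liquid or solid medium.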

Series [2] relates to Streptococcus pyogenes (Isolate ID ATCC 51339). In words: Antibacterial activity, MIC, S. pyogenes. The note with it: Streptococcus pyogenes, ATCC51339, Gram positive strain; broth microdilution or agar dilution. The series is classed as cell-based. An outline of the steps:
as §1

Series [3] concerns Haemophilus influenzae (Isolate ID ATCC 49247). Put plainly: Antibacterial activity, MIC, H. influenzae. The series is classed as cell-based. The conditions noted are these: Haemophilus influenzae, ATCC49247; Gram negative strain; broth microdilution or agar dilution. The procedure, abridged:
as §1

Series [4] relates to Staphylococcus aureus (Isolate ID ATCC 29213). Put plainly: Antibacterial activity, MIC, S. aureus. The note with it: Staphylococcus aureus, ATCC29213, Gram positive strain; broth microdilution or agar dilution. The format is cell-based. The procedure, abridged: as §1
The mark [5] stands for this setting: pH 7.4, aqueous buffer, Max Solubility.
Setting [6] is: pH 7.4, aqueous buffer, Solubility (pH 7.4).
Where [7] appears, read: pH 7.4, aqueous buffer, Solubility Range.
Where [8] appears, read: pH 7.4, aqueous buffer, Solubility Range (maximum solubility).
[9] abbreviates: pH 9, aqueous buffer, Max Solubility.
Setting [10] is: pH 9, aqueous buffer, Solubility Range (maximum solubility).

≈ marks a conversion by molar mass, not a printed value.

Regarding `CCNC(=O)Nc1nc2cc(-c3cnc(N4CCC(C)(C(=O)O)CC4)nc3)cc(-c3ncccc3OC)c2s1` [Compound 61], the solubility at 24 h in “physchem” (setting [5]) was ≥ 800 µg/mL; in “physchem” (setting [6]), ≥ 800 µg/mL; in the series “physchem” (setting [7]), > 800 µg/mL; in “physchem” (setting [8]) it was > 800 µg/mL. The MIC was ≤ 0.25 µg/mL in series [1], ≤ 0.25 µg/mL in series [2], 1 to 16 µg/mL (≈ 1.83 to 29.2 µM) in series [3] and ≤ 0.25 µg/mL in series [4].
As to `CCNC(=O)Nc1nc2cc(-c3cnc(N4CCC(C)(C(=O)O)CC4)nc3)cc(-c3nc(OC)ccc3N)c2s1` [Compound 62], the solubility at 24 h in the series “physchem” (setting [5]) was ≥ 800 µg/mL; in the series “physchem” (setting [6]), ≥ 800 µg/mL; in the series “physchem” (setting [7]), > 800 µg/mL; in the series “physchem” (setting [8]) it was > 800 µg/mL. Moreover, the MIC in series [1] is ≤ 0.25 µg/mL; in series [2], 0.25 to 1 µg/mL (≈ 0.444 to 1.78 µM); in series [3] it was 1 to 16 µg/mL (≈ 1.78 to 28.4 µM); in series [4] it was 0.25 to 1 µg/mL (≈ 0.444 to 1.78 µM).
In the case of `CCNC(=O)Nc1nc2cc(-c3cnc(N4CCC(C)(C(=O)O)CC4)nc3)cc(-c3ncc(C#N)cc3F)c2s1` [Compound 63], the solubility at 24 h in “physchem” (setting [6]) was 400 µg/mL (≈ 714 µM); in “physchem” (setting [7]) it was 400 to 800 µg/mL (≈ 714 to 1430 µM); in “physchem” (setting [9]), ≥ 800 µg/mL; in “physchem” (setting [10]), > 800 µg/mL. Also, the MIC was ≤ 0.25 µg/mL in series [1], ≤ 0.25 µg/mL in series [2], 1 to 16 µg/mL (≈ 1.78 to 28.5 µM) in series [3] and ≤ 0.25 µg/mL in series [4].
As for `CCNC(=O)Nc1nc2cc(-c3cnc(N4CCC(C)(C(=O)O)CC4)nc3)cc(-c3nc(C)ccc3OC)c2s1` [Compound 64], the solubility at 24 h in “physchem” (setting [5]) was ≥ 800 µg/mL; in the series “physchem” (setting [6]) it was ≥ 800 µg/mL; in the series “physchem” (setting [7]), > 800 µg/mL; in the series “physchem” (setting [8]) it was > 800 µg/mL. Also, the MIC in series [1] was ≤ 0.25 µg/mL; in series [2] it was ≤ 0.25 µg/mL; in series [3] it was 1 to 16 µg/mL (≈ 1.78 to 28.5 µM); in series [4], ≤ 0.25 µg/mL.
With `CCNC(=O)Nc1nc2cc(-c3cnc(N4CCC(C)(C(=O)O)CC4)nc3)cc(-c3ncc(C)cc3C#N)c2s1` [Compound 65], the solubility at 24 h was 12.5 µg/mL (≈ 22.5 µM) in the series “physchem” (setting [5]), 12.5 µg/mL (≈ 22.5 µM) in the series “physchem” (setting [6]), 12.5 to 400 µg/mL (≈ 22.5 to 719 µM) in the series “physchem” (setting [7]) and 12.5 to 400 µg/mL (≈ 22.5 to 719 µM) in “physchem” (setting [8]). The MIC was ≤ 0.25 µg/mL in series [1], ≤ 0.25 µg/mL in series [2], 1 to 16 µg/mL (≈ 1.8 to 28.7 µM) in series [3] and ≤ 0.25 µg/mL in series [4].
For the compound `CCNC(=O)Nc1nc2cc(-c3cnc(N4CCC(C)(C(=O)O)CC4)nc3)cc(-c3cnc(C)cn3)c2s1` [Compound 66], the solubility at 24 h in the series “physchem” (setting [5]) was ≥ 800 µg/mL; in “physchem” (setting [6]) it was ≥ 800 µg/mL; in the series “physchem” (setting [7]) it was > 800 µg/mL; in the series “physchem” (setting [8]), > 800 µg/mL. The MIC in series [1] is ≤ 0.25 µg/mL; in series [2], ≤ 0.25 µg/mL; in series [3] it was 0.25 to 1 µg/mL (≈ 0.469 to 1.88 µM); in series [4], ≤ 0.25 µg/mL.
For `CCNC(=O)Nc1nc2cc(-c3cnc(N4CCC(C)(C(=O)O)CC4)nc3)cc(-c3ccncn3)c2s1` [Compound 67], the solubility at 24 h in “physchem” (setting [5]) is ≥ 800 µg/mL; in “physchem” (setting [6]), ≥ 800 µg/mL; in “physchem” (setting [7]), > 800 µg/mL; in the series “physchem” (setting [8]), > 800 µg/mL. Further, the MIC was ≤ 0.25 µg/mL in series [1], ≤ 0.25 µg/mL in series [2], 1 to 16 µg/mL (≈ 1.93 to 30.9 µM) in series [3] and ≤ 0.25 µg/mL in series [4].
As for `CCNC(=O)Nc1nc2cc(-c3cnc(N4CCC(C)(C(=O)O)CC4)nc3)cc(-c3cc(OCC)ccn3)c2s1` [Compound 68], the solubility at 24 h was ≥ 800 µg/mL in the series “physchem” (setting [5]), ≥ 800 µg/mL in the series “physchem” (setting [6]), > 800 µg/mL in the series “physchem” (setting [7]) and > 800 µg/mL in the series “physchem” (setting [8]). Also, the MIC in series [1] was ≤ 0.25 µg/mL; in series [2] it was ≤ 0.25 µg/mL; in series [3], 0.25 to 1 µg/mL (≈ 0.445 to 1.78 µM); in series [4], ≤ 0.25 µg/mL.
For `CCNC(=O)Nc1nc2cc(-c3cnc(N4CCC(C)(C(=O)O)CC4)nc3)cc(-c3ncc(C#N)cc3C)c2s1` [Compound 69], the solubility at 24 h is ≥ 800 µg/mL in “physchem” (setting [5]), ≥ 800 µg/mL in “physchem” (setting [6]), > 800 µg/mL in “physchem” (setting [7]) and > 800 µg/mL in “physchem” (setting [8]). Moreover, the MIC in series [1] was ≤ 0.25 µg/mL; in series [2], 0.25 to 1 µg/mL (≈ 0.449 to 1.8 µM); in series [3], 1 to 16 µg/mL (≈ 1.8 to 28.7 µM); in series [4], 1 to 16 µg/mL (≈ 1.8 to 28.7 µM).
Turning to `CCNC(=O)Nc1nc2cc(-c3cnc(N4CCC(C)(C(=O)O)CC4)nc3)cc(-c3nccc4occc34)c2s1` [Compound 70], the solubility at 24 h in the series “physchem” (setting [5]) is ≥ 800 µg/mL; in the series “physchem” (setting [6]), ≥ 800 µg/mL; in the series “physchem” (setting [7]), > 800 µg/mL; in the series “physchem” (setting [8]), > 800 µg/mL. Further, the MIC in series [1] was ≤ 0.25 µg/mL; in series [2], ≤ 0.25 µg/mL; in series [3] it was 1 to 16 µg/mL (≈ 1.79 to 28.7 µM); in series [4], ≤ 0.25 µg/mL.
Take `CCNC(=O)Nc1nc2cc(-c3cnc(N4CCC(C)(C(=O)O)CC4)nc3)cc(-c3nccc(N(C)C)c3C#N)c2s1` [Compound 71]: the solubility at 24 h in “physchem” (pH 4, aqueous buffer, Max Solubility) is 50 µg/mL (≈ 85.4 µM); in the series “physchem” (pH 4, aqueous buffer, Solubility Range (maximum solubility)) it was 12.5 to 400 µg/mL (≈ 21.3 to 683 µM); in “physchem” (setting [6]), 6.25 µg/mL (≈ 10.7 µM); in “physchem” (setting [7]), < 12.5 µg/mL. In addition, the MIC in series [1] is ≤ 0.25 µg/mL; in series [2], ≤ 0.25 µg/mL; in series [3] it was 0.25 to 1 µg/mL (≈ 0.427 to 1.71 µM); in series [4], 0.25 to 1 µg/mL (≈ 0.427 to 1.71 µM).
As to `CCNC(=O)Nc1nc2cc(-c3cnc(N4CCC(C)(C(=O)O)CC4)nc3)cc(/C=N/OC)c2s1` [Compound 72, (E)-1-(5-(2-(3-ethylureido)-7-((methoxyimino)methyl)benzo[d]thiazol-5-yl)pyrimidin-2-yl)-4-methylpiperidine-4-carboxylic acid], the solubility at 24 h in “physchem” (setting [5]) is ≥ 800 µg/mL; in “physchem” (setting [6]) it was ≥ 800 µg/mL; in the series “physchem” (setting [7]), > 800 µg/mL; in the series “physchem” (setting [8]) it was > 800 µg/mL. Also, the MIC is ≤ 0.25 µg/mL in series [1], ≤ 0.25 µg/mL in series [2], 0.25 to 1 µg/mL (≈ 0.502 to 2.01 µM) in series [3] and ≤ 0.25 µg/mL in series [4].
Consider `CCNC(=O)Nc1nc2cc(-c3cnc(N4CCC(C)(C(=O)O)CC4)nc3)cc(-c3cncc(OC(C)(C)C)n3)c2s1` [Compound 73], for which the solubility at 24 h in the series “physchem” (setting [6]) is 400 µg/mL (≈ 677 µM); in the series “physchem” (setting [7]), 400 to 800 µg/mL (≈ 677 to 1350 µM); in “physchem” (setting [9]), ≥ 800 µg/mL; in “physchem” (setting [10]), > 800 µg/mL. The MIC was ≤ 0.25 µg/mL in series [1], 1 to 16 µg/mL (≈ 1.69 to 27.1 µM) in series [2], > 16 µg/mL in series [3] and 0.25 to 1 µg/mL (≈ 0.423 to 1.69 µM) in series [4].
For the compound `CCNC(=O)Nc1nc2cc(-c3cnc(N4CCC(C)(C(=O)O)CC4)nc3)cc(C3CCN(C(C)=O)CC3)c2s1` [Compound 74, 1-[5-[7-(1-acetyl-4-piperidyl)-2-(ethylcarbamoylamino)-1,3-benzothiazol-5-yl]pyrimidin-2-yl]-4-methyl-piperidine-4-carboxylic acid], the solubility at 24 h in the series “physchem” (setting [5]) was ≥ 800 µg/mL; in the series “physchem” (setting [6]), ≥ 800 µg/mL; in “physchem” (setting [7]), > 800 µg/mL; in the series “physchem” (setting [8]), > 800 µg/mL. In addition, the MIC is 1 to 16 µg/mL (≈ 1.77 to 28.3 µM) in series [1], 1 to 16 µg/mL (≈ 1.77 to 28.3 µM) in series [2], > 16 µg/mL in series [3] and > 16 µg/mL in series [4].
Consider `CCNC(=O)Nc1nc2cc(-c3cnc(N4CCC(C)(C(=O)O)CC4)nc3)cc(-c3cnc(N(C)C)s3)c2s1` [Compound 75], for which the solubility at 24 h in “physchem” (setting [6]) is 25 µg/mL (≈ 44.1 µM); in “physchem” (setting [7]), 12.5 to 400 µg/mL (≈ 22.1 to 706 µM); in “physchem” (setting [9]), 100 µg/mL (≈ 176 µM); in the series “physchem” (setting [10]) it was 12.5 to 400 µg/mL (≈ 22.1 to 706 µM). Also, the MIC in series [1] was ≤ 0.25 µg/mL; in series [2] it was 0.25 to 1 µg/mL (≈ 0.441 to 1.76 µM); in series [3], 1 to 16 µg/mL (≈ 1.76 to 28.2 µM); in series [4], 0.25 to 1 µg/mL (≈ 0.441 to 1.76 µM).
